Results as given in patent US20060189539A1, “Novel GnRH analogues with antitumour effects and pharmaceutical compositions thereof” (priority 1994, published 2006).

Experiments:
[1] = test system: MCF-7 human mammary carcinoma cell line; experiment: Inhibition of colony formation (dose-survival), Example 48; type: cell-based
Description: MCF-7 human mammary carcinoma cell line was stabilized in 1973 by Soule et al. from the pleural fluid of a patient suffering from mammary carcinoma. MDA-MB-231 human mammary carcinoma cell line was isolated and stabilized by Cailleau et al. in 1974 similarly from pleural fluid. Both cell lines grow in monolayer. […] MCF-7 cell line is estradiol receptor (ER)-positive containing proteins specifically binding GnRH. Thus, it represents, a useful model system for investigating the direct effect of GnRH mediated by the GnRH receptor. Being ER-negative and GnRH receptor-positive, MDA-MB-231 cell line is similarly suitable to study the direct effect of GnRH. PC3 human prostate carcinoma cell line was stabilized in cell culture by Kaighn et al. in 1979. The cells are of epithelial type and form compact colonies in clonogenic assays. The Ishikawa cell line originates from human endometrial adenocarcinoma [M. Nishida et al.: Acta Obstet. Gynecol. Jpn. 37, 1103-1111 (1985)], it is epithelial in its character and contains steroid-as well as GnRH receptors. The examination gives accurate information about the cell-damaging effect of the substance tested as a function of varying doses. The treatment was carried out once; the colonies formed from the surviving cells were counted after 8-12 days. […] A part of the arrested cells again entered the cycle, an other part of them might be destroyed (apoptosis). […] The treatment was once carried out 24 hours after setting, then the colonies formed were counted after 8-12 days. The cells were treated once after 24 hours with 1-50 μM of various GnRH analogues of Examples above or with 1-50 μM of GnRH-III, respectively. The percentages of inhibition obtained on MCF-7, MDA-MB-231, PC3 and Ishikawa cells, respectively, together with the dose of the active agent used are shown in Table VIII.

[2] = test system: MDA-MB-231 human mammary carcinoma cell line; experiment: as above; type: cell-based
Description: (§1) MCF-7 human mammary carcinoma cell line was stabilized in 1973 by Soule et al. from the pleural fluid of a patient suffering from mammary carcinoma. MDA-MB-231 human mammary carcinoma cell line was isolated and stabilized by Cailleau et al. in 1974 similarly from pleural fluid. Both cell lines grow in monolayer. MCF-7 and MDA-MB-231 human mammary carcinoma cell lines are maintained in plastic flasks (Greiner), in Dulbecco-modified Eagle-MEM (DMEM, GIBCO) liquid nutrient medium containing 10% of fetal calf serum. MCF-7 cell line is estradiol receptor (ER)-positive containing proteins specifically binding GnRH. Thus, it represents, a useful model system for investigating the direct effect of GnRH mediated by the GnRH receptor. Being ER-negative and GnRH receptor-positive, MDA-MB-231 cell line is similarly suitable to study the direct effect of GnRH. PC3 human prostate carcinoma cell line was stabilized in cell culture by Kaighn et al. in 1979. The cells are of epithelial type and form compact colonies in clonogenic assays. The Ishikawa cell line originates from human endometrial adenocarcinoma [M. Nishida et al.: Acta Obstet. Gynecol. Jpn. 37, 1103-1111 (1985)], it is epithelial in its character and contains steroid-as well as GnRH receptors.
(§2) The examination gives accurate information about the cell-damaging effect of the substance tested as a function of varying doses. The treatment was carried out once; the colonies formed from the surviving cells were counted after 8-12 days. […] A part of the arrested cells again entered the cycle, an other part of them might be destroyed (apoptosis). […] In the case of a dose-response investigation, colonies containing less than 15 cells were not counted. 300 cells were put into each Petri dishes of 3.5 cm in diameter. The treatment was once carried out 24 hours after setting, then the colonies formed were counted after 8-12 days. The cells were treated once after 24 hours with 1-50 μM of various GnRH analogues of Examples above or with 1-50 μM of GnRH-III, respectively. The percentages of inhibition obtained on MCF-7, MDA-MB-231, PC3 and Ishikawa cells, respectively, together with the dose of the active agent used are shown in Table VIII.

human tumor cell lines = experiment: Colony formation, Example 48, comparison with control D-Trp6-hGnRH; type: cell-based; details: data of Table VIII
Method: as §2
In these studies the D-Trp6-hGnRH analogue (Sigma Co.) commonly used in the tumour therapy was employed as control.

[3] = test system: Ishikawa endometrium tumour cell culture; experiment: Inhibition of colony formation (dose-survival), Example 48; type: cell-based, human; details: 50 μM
Description: as §1, §2

[4] = test system: PC3 prostate tumour cell culture; experiment: as above; type: cell-based, human; details: for % Inhibition of colony formation: 50 μM; for Effect on colony-forming ability: within the dose range used (1-50 μM)
Description: as §1, §2

[5] = test system: Ishikawa human endometrium carcinoma cell line; experiment: Inhibition of colony formation (dose-survival), Example 18; type: cell-based; details: 50 μM
Description: (§3) Human cell lines used in in vitro experiments. MCF-7 human mammary tumour cell line was stabilized in 1973 by Soule et al. from the pleural fluid of mammary carcinoma patients. The cells grow in monolayer and are epithelial in their character. MDA-MB-231 human mammary carcinoma cell line was isolated and stabilized in 1974 by Cailleau et al. similarly from pleural fluid. These cells also grow in monolayer. PC3 human prostate carcinoma cell line was stabilized 20 in 1979 in cell culture by Kaighn et al.; the cells are of simple epithelium type and form compact colonies in clonogenic assays. Ishikawa cell line originated from adenocarcinoma of human endometrium [Nishida et al.: Obstet. Gynecol. Jpn, 37, 25 1103-1111 (1985)], has epithelial character and contains steroid as well as GnRH receptors. Human tumour cell lines are maintained in plastic flasks (Greiner) in Dulbecco-6modified Eagle-MEM (DMEM GIBCO) nutritive medium. The medium used herein contained 10% of fetal calf serum (FCS).
(§4) In the case of cytostatics the cell-damaging effect is not cell-specific. […] One part of the arrested cells again go into the cycle, the other part may perish (apoptosis). […] The investigations were carried out on MCF-7 and MDA-MB-231 human mammary carcinoma cell lines, PC3 human prostate 15 carcinoma cell line and Ishikawa human endometrium carcinoma cell line. Threehundred cells were set into Petri dishes of 3.5 cm in diameter each. The treatment was carried out once, 24 hours following the explantation, then the colonies formed were counted after 9 to 12 days.

[6] = test system: MCF-7 human mammary carcinoma cell line; experiment: as above; type: cell-based; details: 50 μM
Description: as §3, §4

[7] = test system: PC3 human prostate carcinoma cell line; experiment: as above; type: cell-based; details: 50 μM
Description: as §3, §4

| Compound | % Inhibition of colony formation ([1]; 50 μM) [%] | % Inhibition of colony formation ([2]; 50 μM) [%] | Inhibitory effect on colony formation compared with control D-Trp6-hGnRH (human tumor cell lines) | % Inhibition of colony formation [3] [%] | other results |
| --- | --- | --- | --- | --- | --- |
| CC(C)C[C@H](NC(=O)[C@@H](Cc1c[nH]c2ccccc12)NC(=O)[C@H](Cc1ccc(O)cc1)NC(=O)[C@H](CO)NC(=O)[C@H](Cc1c[nH]c2ccccc12)NC(=O)[C@H](Cc1c[nH]cn1)NC(=O)[C@@H]1CCC(=O)N1)C(=O)N[C@@H](CCCNC(=N)N)C(=O)N1CCC[C@H]1C(=O)NCC(N)=O [D-Trp6-hGnRH, pGlu-His-Trp-Ser-Tyr-D-Trp-Leu-Arg-Pro-Gly-NH2, reference compound] | 36.7 | 38.7 |  |  | % Inhibition of colony formation ([1]; 10 μM): 17.1%; % Inhibition of colony formation ([2]; 10 μM): 15.7% |
| Ac-D-Trp^1,3,D-Cpa2,{Lys[n-poly(N-vinylpyrrolidone-co-maleic acid)-Ahx]}5,[a-Asp(DEA)]6,D-Ala10-GnRH [P-Ahx-1892] | 31 |  |  |  |  |
| Glu^6-GnRH-III [Compound 8] |  | 25 | exceeded the inhibitory effect of control | 2 | % Inhibition of colony formation [4]: 31% |
| H-Glu^1, D-Trp^6-hGnRH [Compound 19] | 32.7 |  | approximated the activity of the control |  | % Inhibition of colony formation ([1]; 10 μM): 16.8% |
| Lys^5, D-Trp^6-hGnRH [Compound 17] | 65 | 63 | twice stronger inhibition | 17 | % Inhibition of colony formation [4]: 18%; Effect on colony-forming ability [4]: weakly inhibited; % Inhibition of colony formation ([2]; 10 μM): 30% |
| Lys^5,cyclo[Asp^6-Lys^8]-GnRH-III [Compound 3] | 44 |  | exceeded the inhibitory effect of control | 13 | % Inhibition of colony formation [5]: 13%; % Inhibition of colony formation [6]: 44% |
| Lys^5-GnRH-III [Compound 2] | 0 | 0 |  |  |  |
| Phe^7-GnRH-III [Compound 15] |  | 21 | weak if any effect |  |  |
| [Lys(ε-Ac)]^4-GnRH-III [Compound 7] | 52 | 42 | exceeded the inhibitory effect of control | 14 | % Inhibition of colony formation [4]: 0%; Effect on colony-forming ability [4]: did not influence; % Inhibition of colony formation ([2]; 10 μM): 31% |
| [Lys(ε-Fmoc)]^5-GnRH-III [Compound 1] |  |  | weak if any effect |  |  |
| [Trp(For-Ind)]^3,7-GnRH-III [Compound 14] |  |  | approximated the activity of the control | 24 |  |
| {D-Lys[n-poly(N-vinylpyrrolidone-co-maleic acid)-Gly-Phe-Leu-Gly]}6,-GnRH [P-GFLG-609] |  |  |  |  | % Inhibition of colony formation ([1]; 10 μM): 40% |
| {Lys[n-poly(N-vinylpyrrolidone-co-maleic acid)-Gly-Phe-Leu-Gly-]}5,cyclo(Asp6-Lys8)-GnRH-III [P-GFLG-Lys5-cyclo(Asp6,Lys8)-GnRH-III] |  |  |  |  | % Inhibition of colony formation [7]: 100%; % Inhibition of colony formation [5]: 19% |
